Measured values from ChEMBL document CHEMBL2440096, “Synthesis, structure analysis, antitumor evaluation and 3D-QSAR studies of 3,6-disubstituted-dihydro-1,2,4,5-tetrazine derivatives” (Bioorg Med Chem Lett, 2013).

Tests used:
[1] = system: P388; test: Antiproliferative activity against mouse P388 cells by MTT assay; type: functional, cell-based
[2] = system: A549; test: Antiproliferative activity against human A549 cells by SRB assay; type: functional, cell-based

SMILES	IC50 [1]	IC50 ([2]; read-out: IC50)	IC50 ([2]; read-out: pIC50 (converted))
CCCOC(=O)N1C(c2ccccc2)=NN=C(c2ccccc2)N1C(=O)OCCC	11.7 µM	> 100 µM	
O=S(=O)(c1ccccc1)N1N=C(c2ccccc2)N(S(=O)(=O)c2ccccc2)N=C1c1ccccc1		74.1 µM	74.1 µM
COC(=O)N1N=C(c2ccc(Cl)cc2)NN=C1c1ccc(Cl)cc1	34.9 µM	49.4 µM	49.4 µM
COC(=O)N1C(c2ccc(C(F)(F)F)cc2)=NN=C(c2ccc(C(F)(F)F)cc2)N1C(=O)OC	30.4 µM	2.08 µM	
CCC(=O)N1N=C(c2ccccc2)NN=C1c1ccccc1		48.3 µM	48.3 µM
CC(C)CCOC(=O)N1N=C(c2ccccc2)NN=C1c1ccccc1	24.6 µM	44.2 µM	44.2 µM
CCOC(=O)N1N=C(c2ccc(C(F)(F)F)cc2)NN=C1c1ccc(C(F)(F)F)cc1	24.7 µM	0.575 µM	0.575 µM
CC1=NN(C(=O)Nc2cccc(O)c2)C(C)=NN1C(=O)Nc1cccc(O)c1		5.55 µM	5.55 µM
CC(C)C(=O)N1N=C(c2ccccc2)NN=C1c1ccccc1		2.22 µM	2.22 µM
COC(=O)N1N=C(c2ccc(Cl)cc2)N(C(=O)OC)N=C1c1ccc(Cl)cc1		76.7 µM	76.7 µM
CC(=O)N1N=C(c2ccc(C(F)(F)F)cc2)NN=C1c1ccc(C(F)(F)F)cc1		9.76 µM	9.75 µM
COc1cc(NC(=O)N2N=C(C)N(C(=O)Nc3cc(OC)cc(OC)c3)N=C2C)cc(OC)c1		0.035 µM	0.035 µM
CCC(=O)N1N=C(c2ccc(C(F)(F)F)cc2)NN=C1c1ccc(C(F)(F)F)cc1		9.56 µM	9.55 µM
CC1=NN(C(=O)Nc2ccccc2O)C(C)=NN1C(=O)Nc1ccccc1O		57.3 µM	57.3 µM
CCCC1=NN(C(=O)Nc2cccc(C)c2)C(CCC)=NN1C(=O)Nc1cccc(C)c1		1 µM	1 µM
CC(=O)N1N=C(c2ccccc2)NN=C1c1ccccc1		44.7 µM	44.7 µM
Oc1ccc(Cl)cc1C1=NN=C(c2cc(Cl)ccc2O)NN1		13.2 µM	13.2 µM

SMILES	IC50 [1]	IC50 ([2]; read-out: IC50)	IC50 ([2]; read-out: pIC50 (converted))
CCCC1=NN(C(=O)Nc2ccccc2)C(CCC)=NN1C(=O)Nc1ccccc1		5.42 µM	5.42 µM
CCOC(=O)N1C(c2ccc(C(F)(F)F)cc2)=NN=C(c2ccc(C(F)(F)F)cc2)N1C(=O)OCC	> 100 µM	51.1 µM	
CCCOC(=O)N1N=C(c2ccccc2)NN=C1c1ccccc1	> 100 µM	> 100 µM	
O=C(CCl)N1N=C(c2ccc(C(F)(F)F)cc2)NN=C1c1ccc(C(F)(F)F)cc1		8.53 µM	8.53 µM
CCCCCOC(=O)N1N=C(c2ccccc2)NN=C1c1ccccc1	11.8 µM	40.8 µM	40.8 µM
COC(=O)N1N=C(c2cccc(Cl)c2)N(C(=O)OC)N=C1c1cccc(Cl)c1		89 µM	88.9 µM
CC1=NN(C(=O)Nc2cc(C)cc(C)c2)C(C)=NN1C(=O)Nc1cc(C)cc(C)c1		3.66 µM	3.66 µM
COC(=O)N1C(c2ccccc2)=NN=C(c2ccccc2)N1C(=O)OC	> 100 µM	> 100 µM	
O=C(OCC1CCCCC1)N1C(c2ccc(C(F)(F)F)cc2)=NN=C(c2ccc(C(F)(F)F)cc2)N1C(=O)OCC1CCCCC1	> 100 µM	> 100 µM	
c1ccc(C2=NNC(c3ccccc3)=NN2)cc1		19.9 µM	19.9 µM
COC(=O)N1N=C(c2ccccc2)NN=C1c1ccccc1	> 100 µM	39.5 µM	39.5 µM
FC(F)(F)c1ccc(C2=NN=C(c3ccc(C(F)(F)F)cc3)NN2)cc1		40 µM	40 µM
Clc1ccc(C2=NN=C(c3ccc(Cl)cc3)NN2)cc1		51.8 µM	51.8 µM
O=C(Oc1ccccc1)N1C(c2ccc(C(F)(F)F)cc2)=NN=C(c2ccc(C(F)(F)F)cc2)N1C(=O)Oc1ccccc1	26.6 µM	14.5 µM	
O=S(=O)(c1ccccc1)N1N=C(c2ccc(Cl)cc2)N(S(=O)(=O)c2ccccc2)N=C1c1ccc(Cl)cc1		51.9 µM	51.9 µM
COc1ccccc1NC(=O)N1N=C(c2ccccc2)NN=C1c1ccccc1		44.9 µM	44.9 µM

Next, values leading:

IC50 [1]	IC50 ([2]; read-out: IC50)	IC50 ([2]; read-out: pIC50 (converted))	SMILES
> 100 µM	> 100 µM		CCCOC(=O)N1C(c2ccc(C(F)(F)F)cc2)=NN=C(c2ccc(C(F)(F)F)cc2)N1C(=O)OCCC
	79.3 µM	79.3 µM	COC(=O)N1N=C(c2ccc(Cl)cc2Cl)N(C(=O)OC)N=C1c1ccc(Cl)cc1Cl
	83.6 µM	83.6 µM	COC(=O)N1N=C(c2cccc([N+](=O)[O-])c2)N(C(=O)OC)N=C1c1cccc([N+](=O)[O-])c1
	1.1 µM	1.1 µM	CCCC1=NN(C(=O)Nc2cccc(Cl)c2)C(CCC)=NN1C(=O)Nc1cccc(Cl)c1
11.2 µM	26.6 µM		CCOC(=O)N1C(c2ccccc2)=NN=C(c2ccccc2)N1C(=O)OCC
> 100 µM	101 µM		O=C(OCCCl)N1N=C(c2ccccc2)NN=C1c1ccccc1
	31.6 µM	31.6 µM	CC(C)C(=O)N1N=C(c2ccc(C(F)(F)F)cc2)NN=C1c1ccc(C(F)(F)F)cc1
	58.8 µM	58.7 µM	COc1ccc(C2=NN(S(=O)(=O)c3ccccc3)C(c3ccc(OC)cc3)=NN2S(=O)(=O)c2ccccc2)cc1
	85.8 µM	85.7 µM	Cc1ccc(S(=O)(=O)N2N=C(c3ccccc3)N(S(=O)(=O)c3ccc(C)cc3)N=C2c2ccccc2)cc1
	1.85 µM	1.85 µM	O=C(CCl)N1N=C(c2ccccc2)NN=C1c1ccccc1
	0.574 µM	0.574 µM	CC1=NN(C(=O)Nc2cccc(C)c2)C(C)=NN1C(=O)Nc1cccc(C)c1
> 100 µM	> 100 µM		CCOC(=O)N1N=C(c2ccccc2)NN=C1c1ccccc1
	0.639 µM	0.64 µM	CCC1=NN(C(=O)Nc2cccc(C)c2)C(CC)=NN1C(=O)Nc1cccc(C)c1
	51.8 µM	51.8 µM	Clc1ccc(CC2=NNC(Cc3ccc(Cl)cc3)=NN2)cc1
	68.5 µM	68.5 µM	CCCCN1N=C(C)N(CCCC)N=C1C
> 100 µM	> 100 µM		O=C(OCC1CCCCC1)N1C(c2ccccc2)=NN=C(c2ccccc2)N1C(=O)OCC1CCCCC1
